Series [1] can be described thus: Pharmacokinetic study of oral vs intra-cecal administration of tacrolimus: blood, rectal content, GI tissue and luminal content (Example 13). The arrangement: species or system Yorkshire-Cross farm swine. The following applies: female, Yorkshire-Cross, swine, in vivo, 0.09 mg/kg. The text has this: No further randomization procedure was employed.
A further series relates to IL-6. The following applies: low dose PO group (15 mg/kg), by 12 h post-dose.
For another series, the system named is GM-CSF. Put plainly: GM-CSF in plasma and colon tissue by ELISA, DSS-induced colitis mouse model. The format is in vivo, mice. The note with it: between IC and PO treatment groups, plasma or colon tissue (data not shown).

As for `C=CC[C@@H]1/C=C(\C)C[C@H](C)C[C@H](OC)[C@H]2O[C@@](O)(C(=O)C(=O)N3CCCC[C@H]3C(=O)O[C@H](/C(C)=C/[C@@H]3CC[C@@H](O)[C@H](OC)C3)[C@H](C)[C@@H](O)CC1=O)[C@H](C)C[C@@H]2OC` [tacrolimus], in series [1], the “Tissue(mean) (ng/g)/Trough(12 hr)(ng/mL) Ratio” value is recorded as 0.
With `C[C@@H]1CCN(C(=O)CC#N)C[C@@H]1N(C)c1ncnc2[nH]ccc12.O=C(O)CC(O)(CC(=O)O)C(=O)O` [tofacitinib citrate], in the series with IL-6, the “IL-6 expression in colon tissue” value is reported as “Recovery from IL-6 inhibition”.
On to `C[C@@H]1CCN(C(=O)CC#N)C[C@@H]1N(C)c1ncnc2[nH]ccc12` [tofacitinib], for which the GM-CSF levels entry in the series on GM-CSF is “nor was there a significant difference”.

The values above are taken from patent US20230033021A1, “TREATMENT OF A DISEASE OF THE GASTROINTESTINAL TRACT WITH AN INTEGRIN INHIBITOR” (Progenity, Inc., priority 2018, published 2023).
